In US8067439B2, “Biphenyl compounds useful as muscarinic receptor antagonists” (Theravance, Inc., priority 2004, dated 2011) one finds Ki data, which are given here for 1 compound.

SMILES strings stand for the structures.

The target in the experiment is T1, M3 muscarinic receptor subtype (hM3) (Homo sapiens, UniProt P20309).
T1 construct: expressed in transfected cells
The experiment can be described thus: Radioligand binding assay ([3H]-NMS displacement, CHO cell membranes). The following applies: [3H]-NMS 1 nM. As to the method: CHO cell lines stably expressing cloned human hM1, hM2, hM3 and hM4 muscarinic receptor subtypes, respectively, were grown to near confluency in medium consisting of HAM's F-12 supplemented with 10% FBS and 250 μg/mL Geneticin. The cells were grown in a 5% CO2, 37° C. incubator and lifted with 2 mM EDTA in dPBS. Cells were collected by 5 minute centrifugation at 650×g, and cell pellets were either stored frozen at −80° C. or membranes were prepared immediately. For membrane preparation, cell pellets were resuspended in lysis buffer and homogenized with a Polytron PT-2100 tissue disrupter (Kinematica AG; 20 seconds×2 bursts). Crude membranes were centrifuged at 40,000×g for 15 minutes at 4° C. […] The protein concentration of the membrane suspension was determined by the method described in Lowry, O. et al., Journal of Biochemistry 193:265 (1951). […]
Radioligand binding assays were performed in 96-well microtiter plates in a total assay volume of 100 μL. […] Filter plates were rinsed three times with wash buffer (10 mM HEPES) to remove unbound radioactivity. […] The plates were then counted in a PerkinElmer Topcount liquid scintillation counter (PerkinElmer Inc., Wellesley, Mass.). Binding data were analyzed by nonlinear regression analysis with the GraphPad Prism Software package (GraphPad Software, Inc., San Diego, Calif.) using the one-site competition model. […]

T1 sequence (P20309 whole entry): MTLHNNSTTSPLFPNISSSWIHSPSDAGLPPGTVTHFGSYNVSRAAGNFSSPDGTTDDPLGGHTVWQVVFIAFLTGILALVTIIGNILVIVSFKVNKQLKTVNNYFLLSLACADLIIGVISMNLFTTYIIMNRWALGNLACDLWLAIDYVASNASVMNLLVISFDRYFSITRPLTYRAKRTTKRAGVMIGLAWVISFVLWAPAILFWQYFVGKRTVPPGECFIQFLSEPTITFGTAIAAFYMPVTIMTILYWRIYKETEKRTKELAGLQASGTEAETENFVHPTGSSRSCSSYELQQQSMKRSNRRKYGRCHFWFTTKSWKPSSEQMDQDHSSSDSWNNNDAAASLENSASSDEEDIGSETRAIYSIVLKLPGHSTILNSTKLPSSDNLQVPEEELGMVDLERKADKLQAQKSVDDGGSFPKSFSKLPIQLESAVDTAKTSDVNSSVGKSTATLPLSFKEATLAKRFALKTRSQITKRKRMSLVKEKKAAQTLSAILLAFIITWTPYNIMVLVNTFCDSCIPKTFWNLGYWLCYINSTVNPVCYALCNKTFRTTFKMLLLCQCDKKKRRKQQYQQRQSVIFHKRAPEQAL

As usually defined, the Ki is the equilibrium dissociation constant of an inhibitor or competing ligand from its target. High values mean weaker binding, low ones tighter binding. For the compound `CN(CCN1CCC(OC(=O)Nc2ccccc2-c2ccccc2)CC1)C(=O)CCCCCN1CCC(C(N)=O)CC1` [Example 1, Biphenyl-2-ylcarbamic Acid 1-(2-{[6-(4-Carbamoylpiperidin-1-yl)hexanoyl]methylamino}ethyl)piperidin-4-yl Ester], the Ki is under 5 nM.
